For 8 compounds, IC50 results are on record in ChEMBL document CHEMBL4261592, “Antiplasmodial flavanones and a stilbene from Carpha glomerata” (Bioorg Med Chem Lett, 2018).

The subject of this assay is Plasmodium falciparum. Briefly: Antiplasmodial activity against ring-stage chloroquine-resistant Plasmodium falciparum Dd2 assessed as reduction in parasite viability after 72 hrs by SYBR Green I dye-based assay. It is filed as functional, organism-based. Conditions: Dd2, 72 h.
For orientation: IC50 means the point on the concentration scale where inhibition reaches its midpoint. Turning to `COc1c(O)cc([C@@H]2CC(=O)c3c(O)c(C)c(OC)c(C)c3O2)cc1O`, the IC50 was > 10 µM. With `COc1c(O)ccc(/C=C/c2cc(O)cc(O)c2)c1CC=C(C)C`, the IC50 was found to be 5.8 µM. For `COc1c(O)cc([C@@H]2CC(=O)c3c(O)cc(O)c(CC=C(C)C)c3O2)cc1O`, the IC50 is 5.2 µM. `C[C@@H]1CC[C@H]2[C@@H](C)C(=O)O[C@@H]3O[C@@]4(C)CC[C@@H]1[C@]32OO4` [ARTEMISININ]: the half-inhibitory concentration (IC50) amounted to 0.012 µM. As for `COc1cc2c(c(O)c1C)C(=O)C[C@@H](c1cc(O)c(OC)c(O)c1)O2`, the figure is > 10 µM; as for `COc1c(O)cc([C@@H]2CC(=O)c3c(O)c(C)c(O)c(C)c3O2)cc1O`, > 10 µM; as for `CC(C)(O)CCc1c(O)cc(O)c2c1O[C@H](c1ccc(O)cc1)CC2=O`, 3.4 µM. As for `CC(C)=CCc1c(O)cc(O)c2c1O[C@H](c1ccc(O)cc1)CC2=O`, the IC50 was determined as 6.7 µM.
